Results: patent US20250374927A1, “HERBICIDAL COMBINATIONS AND A METHOD FOR CONTROLLING UNDESIRED VEGETATION” (UPL Mauritius Limited, priority 2022, published 2025)

Tested on: Borreria verticillata
Experiment: Post-emergence herbicidal efficacy of L-glufosinate ammonium, additional herbicides and their combinations (observed vs Colby expected)
Type: in vivo
Protocol: Methodology: Trials were carried out to evaluate the efficacy of the combination comprising L-glufosinate ammonium and the additional herbicides on Spermacoce genus weeds.
The soil used was sandy clay loam-sand: 68.0%; silt: 8.0%; clay: 24.0%.
All treatments were in 4 replications per treatment with a spray volume of about 150 L/ha.
Efficacy Evaluation: The expected efficacy of the combination comprising L-glufosinate ammonium and additional herbicides was calculated using the well-established Colby method.
In the Colby method, the expected (or predicted) response of a combination of herbicides is calculated by taking the product of the observed response for each individual component of the combination when applied alone, divided by 100, and subtracting this value from the sum of the observed response for each component when applied alone. An unexpected enhancement in efficacy of the combination is then determined by comparing the observed response of the combination to the expected (or predicted) response as calculated from the observed response of each individual component alone. If the observed response of the combination is greater than the expected (or predicted) response, or stated conversely, if the difference between the observed and expected response is greater than zero, then the combination is said to be synergistic or unexpectedly effective (Colby, S. R., Weeds, 1967(15), p. 20-22). The Colby method requires only a single dose of each herbicide applied alone and the mixture of both doses. The formula used to calculate the expected efficacy (EE) which was compared with the observed efficacy (OE) to determine the efficacy of the present disclosure is explained hereinbelow:
The expected efficacy for a combination of two active ingredients is as follows:
The expected efficacy for a combination of three active ingredients is as follows: […]

SMILES: C[N+](C)(C)CCO.O=C([O-])COc1ccc(Cl)cc1Cl [2,4-D choline, 2,4-dichlorophenoxyacetic acid (2,4-D) choline]
- Observed efficacy (%) of 2,4-D choline (137 g a.i./ha) (7 DAA, 137 g a.i./ha, Example 9): 30%
- Observed efficacy (%) of 2,4-D choline (228 g a.i./ha) (7 DAA, 228 g a.i./ha, Example 10): 30%

SMILES: COc1c(Cl)ccc(Cl)c1C(=O)O [Dicamba]
- Observed efficacy (%) of Dicamba (228 g a.i./ha) (7 DAA, 228 g a.i./ha, Example 1): 45%
- Observed efficacy (%) of Dicamba (228 g a.i./ha) (28 DAA, 228 g a.i./ha, Example 1): 40%

SMILES: COc1c(Cl)ccc(-c2nc(C(=O)OCc3ccccc3)c(Cl)c(N)c2F)c1F [Florpyrauxifen-benzyl]
- Observed efficacy (%) of Florpyrauxifen-benzyl (15 g a.i./ha) (7 DAA, Example 2): 30%
- Observed efficacy (%) of Florpyrauxifen-benzyl (15 g a.i./ha) (28 DAA, Example 2): 20%

SMILES: COCc1cnc(C2=NC(C)(C(C)C)C(=O)N2)c(C(=O)O)c1 (stereo not drawn) [Imazamox]
- Observed efficacy (%) of Imazamox (21 g a.i./ha) (3 DAA, 21 g a.i./ha, Example 6): 10%

SMILES: Cc1cnc(C2=NC(=O)C(C)(C(C)C)N2)c(C(=O)O)c1 (stereo not drawn) [Imazapic]
- Observed efficacy (%) of Imazapic (59 g a.i./ha) (3 DAA, Example 7): 10%
- Observed efficacy (%) of Imazapic (59 g a.i./ha) (7 DAA, Example 7): 20%
- Observed efficacy (%) of Imazapic (59 g a.i./ha) (14 DAA, Example 7): 35%
- Observed efficacy (%) of Imazapic (59 g a.i./ha) (21 DAA, Example 7): 30%
- Observed efficacy (%) of Imazapic (59 g a.i./ha) (28 DAA, Example 7): 40%
- Observed efficacy (%) of Imazapic (59 g a.i./ha) (35 DAA, Example 7): 60%

SMILES: CP(=O)(O)CC[C@H](N)C(=O)O.N [L-glufosinate ammonium]
- Observed efficacy (%) of L-glufosinate ammonium (Glufosinate-P-ammonium) (150 g a.i./ha) (3 DAA, Example 6): 55%
- Observed efficacy (%) of L-glufosinate ammonium (Glufosinate-P-ammonium) (150 g a.i./ha) (3 DAA, Example 7): 50%
- Observed efficacy (%) of L-glufosinate ammonium (Glufosinate-P-ammonium) (150 g a.i./ha) (3 DAA, Example 8): 50%
- Observed efficacy (%) of L-glufosinate ammonium (Glufosinate-P-ammonium) (150 g a.i./ha) (7 DAA, Example 1): 65%
- Observed efficacy (%) of L-glufosinate ammonium (Glufosinate-P-ammonium) (150 g a.i./ha) (7 DAA, Example 2): 65%
- Observed efficacy (%) of L-glufosinate ammonium (Glufosinate-P-ammonium) (150 g a.i./ha) (7 DAA, Example 3): 85%
- Observed efficacy (%) of L-glufosinate ammonium (Glufosinate-P-ammonium) (150 g a.i./ha) (7 DAA, Example 5): 90%
- Observed efficacy (%) of L-glufosinate ammonium (Glufosinate-P-ammonium) (150 g a.i./ha) (7 DAA, Example 7): 80%
- Observed efficacy (%) of L-glufosinate ammonium (Glufosinate-P-ammonium) (150 g a.i./ha) (7 DAA, Example 8): 80%
- Observed efficacy (%) of L-glufosinate ammonium (Glufosinate-P-ammonium) (150 g a.i./ha) (14 DAA, Example 3): 80%
- Observed efficacy (%) of L-glufosinate ammonium (Glufosinate-P-ammonium) (150 g a.i./ha) (14 DAA, Example 5): 80%
- Observed efficacy (%) of L-glufosinate ammonium (Glufosinate-P-ammonium) (150 g a.i./ha) (14 DAA, Example 7): 95%
- Observed efficacy (%) of L-glufosinate ammonium (Glufosinate-P-ammonium) (150 g a.i./ha) (14 DAA, Example 8): 95%
- Observed efficacy (%) of L-glufosinate ammonium (Glufosinate-P-ammonium) (150 g a.i./ha) (21 DAA, Example 7): 90%
- Observed efficacy (%) of L-glufosinate ammonium (Glufosinate-P-ammonium) (150 g a.i./ha) (21 DAA, Example 8): 90%
- Observed efficacy (%) of L-glufosinate ammonium (Glufosinate-P-ammonium) (150 g a.i./ha) (28 DAA, Example 1): 95%
- Observed efficacy (%) of L-glufosinate ammonium (Glufosinate-P-ammonium) (150 g a.i./ha) (28 DAA, Example 2): 95%
- Observed efficacy (%) of L-glufosinate ammonium (Glufosinate-P-ammonium) (150 g a.i./ha) (28 DAA, Example 4): 90%
- Observed efficacy (%) of L-glufosinate ammonium (Glufosinate-P-ammonium) (150 g a.i./ha) (28 DAA, Example 7): 90%
- Observed efficacy (%) of L-glufosinate ammonium (Glufosinate-P-ammonium) (150 g a.i./ha) (28 DAA, Example 8): 90%
- Observed efficacy (%) of L-glufosinate ammonium (Glufosinate-P-ammonium) (150 g a.i./ha) (35 DAA, Example 4): 85%
- Observed efficacy (%) of L-glufosinate ammonium (Glufosinate-P-ammonium) (150 g a.i./ha) (35 DAA, Example 7): 85%
- Observed efficacy (%) of L-glufosinate ammonium (Glufosinate-P-ammonium) (150 g a.i./ha) (35 DAA, Example 8): 85%

SMILES: CS(=O)(=O)c1ccc(C(=O)C2C(=O)CCCC2=O)c([N+](=O)[O-])c1 [Mesotrione]
- Observed efficacy (%) of Mesotrione (360 g a.i./ha) (28 DAA, Example 4): 75%
- Observed efficacy (%) of Mesotrione (360 g a.i./ha) (35 DAA, Example 4): 75%

SMILES: CSc1nnc(C(C)(C)C)c(=O)n1N [Metribuzin]
- Observed efficacy (%) of Metribuzin (360 g a.i./ha) (7 DAA, Example 5): 90%
- Observed efficacy (%) of Metribuzin (360 g a.i./ha) (14 DAA, Example 5): 30%

SMILES: CCOc1cc(Oc2ccc(C(F)(F)F)cc2Cl)ccc1[N+](=O)[O-] [Oxyfluorfen]
- Observed efficacy (%) of Oxyfluorfen (430 g a.i./ha) (7 DAA, Example 3): 65%
- Observed efficacy (%) of Oxyfluorfen (430 g a.i./ha) (14 DAA, Example 3): 70%
